The target in assay [1] is T1, Nicotinamide N-methyltransferase (Homo sapiens, UniProt P40261).
T1 sequence (P40261 whole entry): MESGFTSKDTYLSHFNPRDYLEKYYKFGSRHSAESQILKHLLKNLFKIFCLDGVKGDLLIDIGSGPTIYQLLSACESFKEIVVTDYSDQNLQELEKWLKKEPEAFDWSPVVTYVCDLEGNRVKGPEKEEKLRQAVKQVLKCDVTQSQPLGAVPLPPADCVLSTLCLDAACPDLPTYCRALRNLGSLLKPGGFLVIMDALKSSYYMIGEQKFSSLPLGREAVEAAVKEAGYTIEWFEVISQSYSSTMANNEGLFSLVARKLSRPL
In words: Binding affinity to recombinant human NNMT SAM binding site expressed in Escherichia coli BL21 (DE3) using nicotinamide as substrate and AdoMet as cofactor preincubated for 10 mins followed by substrate addition and measured after 10 mins by UHP-HILIC-MS analysis.

For assay [2], the target named is T2, Nicotinamide N-methyltransferase (Mus musculus, UniProt O55239).
T2 sequence (O55239 whole entry): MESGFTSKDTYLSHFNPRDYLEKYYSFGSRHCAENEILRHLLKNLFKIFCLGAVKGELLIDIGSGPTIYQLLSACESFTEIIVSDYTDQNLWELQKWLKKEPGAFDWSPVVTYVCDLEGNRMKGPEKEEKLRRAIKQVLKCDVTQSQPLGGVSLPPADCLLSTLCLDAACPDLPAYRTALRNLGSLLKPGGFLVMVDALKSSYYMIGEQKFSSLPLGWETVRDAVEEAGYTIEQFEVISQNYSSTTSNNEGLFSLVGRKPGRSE
Kind of assay: Inhibition of endogenous mouse NNMT overexpressed in murine 3T3-L1 cells assessed incubated for 24 hrs by LC-MS/MS analysis.

Assay [3] concerns the target T1, Nicotinamide N-methyltransferase. In words: Inhibition of endogenous human NNMT overexpressed in human U2OS cells assessed incubated for 24 hrs by LC-MS/MS analysis.
Assay [4] shares this target. In words: Inhibition of NNMT (unknown origin) assessed as formation of MNA using nicotinamide as substrate and SAM as cofactor by fluorescence based assay.

Drawing on BindingDB's records for doi:10.1021/jm00047a011 (Purdue University, 2021), this text covers IC50 for 4 compounds.

The term IC50 denotes the midpoint of a concentration-inhibition curve. For `Nc1ncnc2c1ncn2[C@@H]1O[C@H](C[C@@H](N)CC[C@H](N)C(=O)O)[C@@H](O)[C@H]1O` [SINEFUNGIN], the half-maximal inhibitory concentration (IC50) in assay [1] came out at 3.9 µM.

For `COc1ccc(C(N)=O)cn1`, the concentration for half-maximal inhibition (IC50) in assay [2] stood at 6.3 µM; in assay [3], 1600 nM.

For `Nc1ncnc2c1ncn2[C@@H]1O[C@H](CSCC[C@H](N)C(=O)O)[C@@H](O)[C@H]1O` [AdoHcy], the 50% inhibitory concentration (IC50) in assay [1] is 26.3 µM.

For `C=C(C)[C@@]12O[C@@]3(/C=C/C=C/CCCCC)O[C@@H]1[C@@H]1[C@@H]4O[C@]4(CO)[C@@H](O)[C@]4(O)C(=O)C(C)=C[C@H]4[C@@]1(O3)[C@H](C)[C@H]2OC(C)=O` [YUANHUADINE], the IC50 in assay [4] was 4 µM.
